The values below come from patent US4636491A, “Renin inhibitory peptides having improved solubility” (Merck & Co., Inc., priority 1984, dated 1987).

For one data set, the target named is T1, human kidney renin (Homo sapiens, UniProt P00797).
T1 construct: human kidney renin purified as described in Bangham; from tissue; host or cells: human kidney
T1 sequence (P00797 67-406): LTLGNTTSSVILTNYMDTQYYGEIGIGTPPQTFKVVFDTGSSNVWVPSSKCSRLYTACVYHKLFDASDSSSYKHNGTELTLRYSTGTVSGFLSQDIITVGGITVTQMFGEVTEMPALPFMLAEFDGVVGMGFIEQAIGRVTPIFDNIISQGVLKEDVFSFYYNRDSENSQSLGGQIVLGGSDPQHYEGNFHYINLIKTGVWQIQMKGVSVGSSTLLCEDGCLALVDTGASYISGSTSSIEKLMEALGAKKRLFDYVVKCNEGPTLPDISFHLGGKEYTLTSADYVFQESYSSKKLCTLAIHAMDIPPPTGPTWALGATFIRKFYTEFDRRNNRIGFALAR
Kind of data set: Inhibition of purified human kidney renin. It is filed as biochemical. To be noted: dissociation constant of the inhibited enzyme-inhibitor complex. As to the method:
(§1) Assays were carried out in order to determine the inhibitory potency of the peptides of the present invention. […] Another assay measured the inhibition of human kidney renin purified as described in Bangham, D. R., Robertson, I., Robinson, J. I. S., Robinson, C. J., and Tree, M., Clinical Science and Molecular Medicine, 48 (Supp. 2): 136s-159s (1975), and further purified by affinity chromatography on pepstatin-aminohexyl-Sepharase described in Poe, M., Wu., J. K., Florance, J. R., Radkey, J. A., Bennet, C. D., and Hoogsteen, K., J. Biol. Chem. 258:2209-2216 (1983). The assay was also in accordance with Poe et al. cited above. Further assays measured human plasma renin and dog plasma renin in accordance with procedures described in Biger et al, Nature, 303:81-84 (1983).
The results expressed as KI values refer to the dissociation constant of the inhibited enzyme-inhibitor complex. This KI value was obtained as described above.

Another data set in a line: Partition coefficient. It is filed as physicochemical. As to the method: (§2) Following the standard solid phase methodology described above in Example 1, additional inhibitory peptides of the present invention were prepared. The peptides prepared are set out in the following table. Satisfactory amino acid analyses were obtained by Spinco method for each listed peptide. Also included in the table is solubility data of three types from which the improved solubility characteristics of the peptides of the present invention may be judged.

The target in a further data set is T2, dog plasma renin (Canis lupus familiaris, UniProt Q6DYE7).
T2 construct: Further assays measured human plasma renin and dog plasma renin; from tissue; host or cells: dog plasma
T2 sequence (Q6DYE7 66-403): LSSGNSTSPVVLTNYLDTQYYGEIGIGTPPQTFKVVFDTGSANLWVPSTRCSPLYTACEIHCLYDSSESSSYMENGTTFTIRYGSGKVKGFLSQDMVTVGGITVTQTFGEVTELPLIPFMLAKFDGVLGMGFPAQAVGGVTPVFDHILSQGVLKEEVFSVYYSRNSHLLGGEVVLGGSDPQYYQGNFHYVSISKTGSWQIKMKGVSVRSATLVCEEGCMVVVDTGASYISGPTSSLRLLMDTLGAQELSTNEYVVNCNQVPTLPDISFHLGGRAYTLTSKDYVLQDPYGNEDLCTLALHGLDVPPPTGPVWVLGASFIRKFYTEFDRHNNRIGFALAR
As to the kind of experiment: Inhibition of dog plasma renin. Format: biochemical. The conditions noted are these: for Dog Plasma, % inhibition at 1000: at 1000 .eta.M. As to the method:
as §1

For a further data set, the target named is T3, human plasma renin (Homo sapiens, UniProt P00797).
T3 construct: Further assays measured human plasma renin and dog plasma renin; from tissue; host or cells: human plasma
T3 sequence (P00797 67-406): T1 sequence (P00797 67-406)
Kind of data set: Inhibition of human plasma renin. It is filed as biochemical. As to the method: as §1

The nature of data set [1]: Solubility of the peptides in pH 7.4 buffer and in H2O. Format: physicochemical. As to the method: as §2
The test system of a further data set is nephrectomized rats. To be noted: after the injection of hog renin into nephrectomized rats; cited from earlier work.
[2] abbreviates: water, H2O, read-out: H2O mg/ml (solubility).
Where [3] appears, read: pH 7.4, aqueous buffer, pH 7.4 Buffer mg/ml (solubility).

≈ marks a conversion by molar mass, not a printed value. Like-named read-outs stand apart in the source and are kept apart here. *1 amine or outer side, *2 acyl side, *3 side chain or, on linkers, in order; H or OH if unused. Where a SMILES comes first, the peptide text is derived from it. [ ]: non-standard residue; d: D form. The star is where a group is joined. ξ: configuration not given here. NH(3-guanidinomethylbenzyl) = NC(N)=NCc1cccc(CN*)c1; NH(3-OCH2COOH-benzyl) = O=C(O)COc1cccc(CN*)c1; X1 = NCc1cccc(CC(N[*:1])C(=O)[*:2])c1; Sta = CC(C)C[C@H](N)[C@@H](O)CC(=O)O; NHCH2CH2SO3H = O=S(=O)(O)CCN*; X4 = NC(Cc1cccc(CN*)c1)C(=O)O; X3 = [O-][n+]1ccc(CN*)cc1; ξPhg = NC(C(=O)O)c1ccccc1; Boc = CC(C)(C)OC(=O)*; X2 = NC(CN*)c1ccccn1

In turn, `CC(C)C[C@H](NC(=O)C[C@H](O)[C@H](CC(C)C)NC(=O)[C@H](Cc1c[nH]cn1)NC(=O)[C@H](Cc1ccccc1)NC(=O)OC(C)(C)C)C(=O)NCCC(N)C(=O)O` (single isomer, unassigned) [Example 5 (Isomer A)] showed a Ki on human kidney renin of 2.4 nM. Also, the “Partition Coefficient” value in “Partition coefficient” was 2.1. In addition, on dog plasma renin (listed as 5 A), the “Dog Plasma, % inhibition at 1000” value is given as 15%. Further, at human plasma renin (at 1000 .eta.M), the “Human Plasma, % inhibition at 1000” value was found to be 25%. In addition, the solubility in data set [1] (setting [2]) is 1.72 mg/mL (≈ 2230 µM).
In the case of `CC(C)C[C@H](NC(=O)C[C@H](O)[C@H](CC(C)C)NC(=O)[C@H](Cc1c[nH]cn1)NC(=O)[C@H](Cc1ccccc1)NC(=O)OC(C)(C)C)C(=O)NCCC(N)C(=O)O` (single isomer, unassigned) [Example 5 (Isomer B)], the Ki on human kidney renin is 2200 nM. Besides, the “Partition Coefficient” value in “Partition coefficient” came out at 10.7. Moreover, on dog plasma renin (listed as 5 B), the “Dog Plasma, % inhibition at 1000” value was determined as 22%. In addition, the “Human Plasma, % inhibition at (concentration not given)” value at human plasma renin was determined as 0%.
Take `CC(C)C[C@H](NC(=O)C[C@H](O)[C@H](CC(C)C)NC(=O)[C@H](Cc1c[nH]cn1)NC(=O)[C@H](Cc1ccccc1)NC(=O)OC(C)(C)C)C(=O)NCC(N)c1ccccn1` (stereo partly drawn) [Example 2] (Boc-FH[Sta]L-X2): in the data set “Partition coefficient”, the “Partition Coefficient” value is recorded as “infinity”. The solubility was found to be 0.32 mg/mL (≈ 404 µM) in data set [1] (setting [3]) and 0.71 mg/mL (≈ 896 µM) in data set [1] (water, H2O mg/ml (solubility)).
Consider `CC(C)C[C@H](NC(=O)C[C@H](O)[C@H](CC(C)C)NC(=O)[C@H](Cc1c[nH]cn1)NC(=O)[C@H](Cc1ccccc1)NC(=O)OC(C)(C)C)C(=O)NCc1cccc(CN=C(N)N)c1` [Example 3] (Boc-FH[Sta]L-{NH(3-guanidinomethylbenzyl)}), for which the “Partition Coefficient” value in “Partition coefficient” is 10.6. Also, the solubility was determined as 0.77 mg/mL (≈ 924 µM) in data set [1] (setting [3]) and 2.46 mg/mL (≈ 2950 µM) in data set [1] (water, H2O mg/ml (solubility)).
As to `CC(C)C[C@H](NC(=O)C[C@H](O)[C@H](CC(C)C)NC(=O)[C@H](Cc1c[nH]cn1)NC(=O)[C@H](Cc1ccccc1)NC(=O)OC(C)(C)C)C(=O)NC(Cc1cccc(CN)c1)C(=O)O` (stereo partly shown) [Example 4] (Boc-FH[Sta]L[X1]-OH), the Ki at human kidney renin stood at 4.9 nM. The “Partition Coefficient” value in the data set “Partition coefficient” worked out at 68.2. Moreover, the solubility in data set [1] (setting [3]) amounted to 1.3 mg/mL (≈ 1530 µM); in data set [1] (water, H2O mg/ml (solubility)), 0.33 mg/mL (≈ 389 µM).
As to `CC(C)C[C@H](NC(=O)C[C@H](O)[C@H](CC(C)C)NC(=O)[C@H](Cc1c[nH]cn1)NC(=O)[C@H](Cc1ccccc1)NC(=O)OC(C)(C)C)C(=O)NCc1cccc(CC(N)C(=O)O)c1` (stereo partly drawn) [Example 6] (Boc-FH[Sta]L-X4), at human kidney renin, the inhibition constant Ki turned out to be 12 nM. For the same compound, the IC50 on dog plasma renin (read-out: Dog Plasma I50) was found to be 120 nM. Besides, the “Human Plasma, % inhibition at (concentration not given)” value at human plasma renin was 15%.
In the case of `CC(C)C[C@H](NC(=O)C[C@H](O)[C@H](CC(C)C)NC(=O)[C@H](Cc1c[nH]cn1)NC(=O)[C@H](Cc1ccccc1)NC(=O)OC(C)(C)C)C(=O)NCc1cc[n+]([O-])cc1` [Example 7] (Boc-FH[Sta]L-X3), the solubility came out at 3.3 mg/mL (≈ 4240 µM) in data set [1] (setting [3]) and 5.1 mg/mL (≈ 6550 µM) in data set [1] (water, H2O mg/ml (solubility)).
In turn, `CC(C)C[C@H](NC(=O)C[C@H](O)[C@H](CC(C)C)NC(=O)[C@H](Cc1c[nH]cn1)NC(=O)[C@H](Cc1ccccc1)NC(=O)OC(C)(C)C)C(=O)NC(C(=O)O)c1ccccc1` (stereo partly shown) [Example 8] (Boc-FH[Sta]L[ξPhg]-OH) yielded a Ki at human kidney renin of 990 nM. Further, in the data set “Partition coefficient”, the “Partition Coefficient” value was 16.5. For the same compound, the “Dog Plasma, % inhibition at 1000” value on dog plasma renin stood at 45%. In addition, the “Human Plasma, % inhibition at (concentration not given)” value on human plasma renin came out at 44%. The solubility in data set [1] (pH 7.4 buffer, pH 7.4, aqueous buffer, pH 7.4 buffer, read-out: pH 7.4 Buffer mg/ml (solubility)) came to 1.8 mg/mL (≈ 2230 µM); in data set [1] (setting [2]), 0.6 mg/mL (≈ 744 µM).
Regarding `CC(C)C[C@H](NC(=O)C[C@H](O)[C@H](CC(C)C)NC(=O)[C@H](Cc1c[nH]cn1)NC(=O)[C@H](Cc1ccccc1)NC(=O)OC(C)(C)C)C(=O)NCc1cccc(OCC(=O)O)c1` [Example 9] (Boc-FH[Sta]L-{NH(3-OCH2COOH-benzyl)}), in “Partition coefficient”, the “Partition Coefficient” value is reported as “infinity”. Further, the solubility in data set [1] (setting [3]) came to 1.5 mg/mL (≈ 1790 µM); in data set [1] (water, H2O mg/ml (solubility)), 0.23 mg/mL (≈ 275 µM).
Regarding `CC(C)C[C@H](NC(=O)C[C@H](O)[C@H](CC(C)C)NC(=O)[C@H](Cc1c[nH]cn1)NC(=O)[C@H](Cc1ccccc1)NC(=O)OC(C)(C)C)C(=O)NCCS(=O)(=O)O` [Example 10] (Boc-FH[Sta]L-NHCH2CH2SO3H), the “Partition Coefficient” value in “Partition coefficient” turned out to be 4.34. The solubility in data set [1] (setting [3]) was over 9 mg/mL; in data set [1] (water, H2O mg/ml (solubility)), over 9 mg/mL.
As to pepstatin, in the data set with nephrectomized rats, the “blood pressure in vivo” value is listed as “reduce blood pressure”.

The Ki is the dissociation constant of the complex between target and ligand, obtained from inhibition or displacement. A low value points to higher affinity.
